Results reported in ChEMBL document CHEMBL1145601, “The design and synthesis of diaryl ether second generation HIV-1 non-nucleoside reverse transcriptase inhibitors (NNRTIs) with enhanced potency versus key clinical mutations” (Bioorg Med Chem Lett, 2008).

Assays:
[1] = biological target: Human immunodeficiency virus type 1 reverse transcriptase (Human immunodeficiency virus 1, UniProt Q72547, Y181C); experiment: Inhibition of HIV1 reverse transcriptase Y181C mutant by SPA assay
[2] = test system: Human immunodeficiency virus 1; experiment: Antiviral activity against HIV1 with RT Y181C mutation in human MT4 cells in presence of 10% fetal bovine serum; assay type: functional; conditions: Human immunodeficiency virus 1, MT4; read-out: CIC95
[3] = test system: Human immunodeficiency virus 1; experiment: Antiviral activity against HIV1 in human MT4 cells in presence of 50% normal human serum; assay type: functional; conditions: Human immunodeficiency virus 1, MT4; read-out: CIC95
[4] = biological target: Human immunodeficiency virus type 1 reverse transcriptase (Human immunodeficiency virus 1, UniProt Q72547); experiment: Inhibition of HIV1 reverse transcriptase by SPA assay
[5] = biological target: Human immunodeficiency virus type 1 reverse transcriptase (Human immunodeficiency virus 1, UniProt Q72547, K103N); experiment: Inhibition of HIV1 reverse transcriptase K103N mutant by SPA assay
[6] = test system: Human immunodeficiency virus 1; experiment: Antiviral activity against HIV1 in human MT4 cells in RPMI1640 media containing fetal bovine serum; assay type: functional; conditions: Human immunodeficiency virus 1, MT4; read-out: CIC95
[7] = test system: Human immunodeficiency virus 1; experiment: Antiviral activity against HIV1 with RT K103N mutation in human MT4 cells in presence of 10% fetal bovine serum; assay type: functional; conditions: Human immunodeficiency virus 1, MT4; read-out: CIC95

Cc1cc(S(N)(=O)=O)ccc1NC(=O)COc1ccc(Cl)cc1C(=O)c1cc(Cl)cc(C#N)c1
IC50 [1]: 2.48 nM | IC95 [2]: 3.28 nM | IC95 [3]: 30.5 nM | IC50 [4]: 2.16 nM | IC50 [5]: 3.16 nM | IC95 [6]: 2.65 nM | IC95 [7]: 6.98 nM

NS(=O)(=O)c1ccc(NC(=O)COc2cc(Cl)cc(Oc3ccccc3)c2)c(Cl)c1
IC50 [1]: 25 nM | IC50 [4]: 10.5 nM | IC50 [5]: 218 nM

N#Cc1cccc(Oc2cc(Cl)cc(OCC(=O)Nc3ccc(S(N)(=O)=O)cc3Cl)c2)c1
IC50 [1]: 1.2 nM | IC95 [3]: 160 nM | IC50 [4]: 0.96 nM | IC50 [5]: 14.4 nM | IC95 [6]: 8 nM

NS(=O)(=O)c1ccc(NC(=O)COc2cccc(Oc3ccccc3)c2)c(Cl)c1
IC50 [1]: 722 nM | IC50 [4]: 51.7 nM | IC50 [5]: 192 nM

N#Cc1cc(Cl)cc(Oc2cc(OCc3nc4cccc(Cl)c4[nH]3)ccc2Cl)c1
IC50 [1]: 50 nM | IC95 [3]: 2780 nM | IC50 [4]: 3.2 nM | IC50 [5]: 7.3 nM | IC95 [6]: 103 nM

N#Cc1cc(Cl)cc(Oc2cc(Cl)cc(OCC(=O)Nc3ccc(S(N)(=O)=O)cc3Cl)c2)c1
IC50 [1]: 2.66 nM | IC95 [3]: 125 nM | IC50 [5]: 3.48 nM | IC95 [6]: 16 nM

N#Cc1cc(Cl)cc(Oc2cc(OCC(=O)Nc3ccc(S(N)(=O)=O)cc3Cl)ccc2Cl)c1
IC50 [1]: 0.28 nM | IC95 [2]: 14.8 nM | IC95 [3]: 23.9 nM | IC50 [4]: 0.14 nM | IC50 [5]: 0.21 nM | IC95 [6]: 7.56 nM | IC95 [7]: 9.52 nM
